Experimental data taken from patent US20220175756A1, “APPLICATION OF COMBINATION OF QUINOLINE DERIVATIVE AND IMMUNOMODULATOR IN PREPARATION OF ANTITUMOR DRUGS” (CHONGQING PHARMACEUTICAL INDUSTRIAL RESEARCH INSTITUTE CO., …, priority 2019, published 2022).

Test system: CT26 mouse colon carcinoma cell strain
Test: In vivo anti-tumor activity in mouse CT26 colon tumor model
Procedure: The experimental purposes was to investigate the in vivo anti-tumor effect of the combination of the test compound with a mouse anti-PD-1 antibody against the mouse colon cancer in CT26 tumor model.
Female Balb/c mice were subcutaneously inoculated with CT26 mouse colon carcinoma cell strain, and randomly grouped based on their body weight, after inoculation. And, they were administered as follows.
To the first group (a control group), the administration was started in the afternoon of the day of vaccination in a way that vehicle 1 (10% DMSO+10% Solutol+80% DDH2O) was administered intragastrically twice a day at a dosage of 0.1 mL/10 g body weight each time, and when the tumor had grown to a volume of about 60 mm^3 after the inoculation, it started to do administration in a way that vehicle 2 (DPBS) was given twice a week through intraperitoneal injection at a dosage of 0.1 mL/10 g body weight at each time.
To the second group, when the tumor had grown to a volume of about 60 mm^3 after the inoculation, it started to do administration in a way that anti-mouse PD-1 antibody (RMP1-14, supplied by BioXcell) was given through intraperitoneal injection twice a week at a dosage of 3 mg/kg body weight at each time. […]
During the experiment, the mice were weighed three times a week, and after the tumor formed, the tumor volume was measured three times a week at each time when the body weight was measured, and calculated following the equation: length×width^2/2. Tumor proliferation rate was calculated following the equation: Tumor proliferation rate=Tumor volume in the treatment group/Tumor volume in the control group×100%.
The differences between groups were statistically analyzed by Student's t-test, and p<0.05 was considered to be a significant difference.

Compound: COc1cc2nccc(Oc3ccc(NC(=O)NC4CC4)c(Cl)c3F)c2cc1C(N)=O [Example 1]
- Tumor proliferation rate (day 25, Example 1 10 mg/kg intragastrically once a day in combination with anti-mouse PD-1 antibody RMP1-14 3 mg/kg i.p. twice a week, female Balb/c mice, p<0.01): 15.38%
- Anti-tumor activity in combination with PD-1 antibody (in words) (mouse CT26 tumor model, combination with PD-1 antibody): significant anti-tumor activity
- Effect on anti-tumor effect of PD-1 antibody (in words) (tumor volumes on day 25, combination group vs single antibody group, p<0.05): significantly enhanced anti-tumor effect on PD-1 antibody
